Experimental data taken from US11014934B2, “Antiseptic drug” (AO “TATKHIMFARMPREPARATY”, priority 2017, dated 2021).
Like-named read-outs stand apart in the source and are kept apart here.

Legend:
[1] = tested on: Candida albicans RCPF Y-401/NCTC-885-653; experiment: Antifungal activity, 2-fold serial dilutions in Saburo glucose broth; assay type: cell-based, C. albicans; conditions: for MIC: Candida albicans
Protocol: The study of the antifungal activity of compound I in vitro was carried out in accordance with [Metodicheskiye rekomendatsii No 2. Mikologicheskoye issledovaniye ob″yektov okruzhayushchey sredy i opredeleniye protivogribkovoy aktivnosti razlichnykh veshchestv.—GOU DPO SPbMAPO NII meditsinskoy mikologii im. P. N. Kashkina, GBOU VPO SZGMU im. I. I. Mechnikova Minzdrava. SPb.: Izd. Dom SPbMAPO.—2008.—S. 16. Methodological recommendations No 2. Mycological examination of environmental objects and determination of antifungal activity of various substances.—State Educational Institution of St. Petersburg Medical Academy of Postgraduate Education with Scientific Research Institute of Medical Mycology named after P. N. Kashkin, State Educational Institution of Higher Professional Education North-West State Medical University named after I. I. Mechnikov, Ministry of Health. St. Petersburg.:: Publishing House SPbMAPO.—2008.—P. 16].
The study of the antifungal activity of substances in vitro was carried out in a liquid nutrient medium (Saburo glucose broth) in biological tubes by the method of 2-fold serial dilutions. In test tubes, three parallel series of dilutions of the test substance were prepared in the following way.
Saburo's liquid broth was sterilely poured in 3 ml into each tube; 4.5 ml was poured into the first tube of the row. A total of 14 tubes were used in a row; of which the last was a control one. 400 mg of the test substance was taken as a standard sample and dissolved in 10 ml of distilled water. Thus, the initial dilution contained the test substance at a concentration of 40000 ug/ml. Then 0.5 ml of this dilution was introduced into the first test tube of the series (with 4.5 ml of medium), thereby diluting the concentration of the substance by another 10 times. Therefore, the first tube of the series contained 4000 μg/ml of the test substance. Then, 3 ml of the solution was taken from the first tube and transferred to the second tube, thoroughly purged, then 3 ml of the solution were taken again from the second tube and transferred to the third tube, etc.; from the penultimate tube, 3 ml was poured. […] The growth of cultures was initially assessed visually, comparing the growth of microorganisms in the presence of test compounds with the growth of culture without them. […] The first lowest concentration of the substance (from a series of consecutive dilutions), where the growth of fungi was suppressed or not visually determined, was considered the minimum inhibitory concentration (MIC).
For the preparation of inoculum, were respectively used pure (2-5) days cultures of yeast and mycelial fungi, grown on Saburo's dense nutrient broth. […] The inoculum was used within 15 minutes after preparation; the purity of the fungal strains was monitored before each experiment. […]

[2] = tested on: Escherichia coli CDC F-50; experiment: Disinfectant activity in suspension test; assay type: cell-based
Protocol: To prepare a bacterial suspension of the culture, microorganisms grown in dense nutrient medium for (18-24) hours were washed off with a sterile isotonic sodium chloride solution. The bacterial suspension of each microorganism was brought to a turbidity corresponding to a concentration of 1×10^9 cells/ml, which corresponds to 3 units of McFarland. For experiments with protein loading, a solution of bovine serum albumin (BSA) was added to the bacterial suspension to a final concentration of 0.2%.
Solutions of compound I, miramistin, and benzalkonium chloride were poured at a working concentration (0.1%, 0.2%) into a 24-well plate of 0.9 ml per well: 0.1 ml of microbial suspension was added to wells with disinfectant solutions and mixed by shaking for several seconds.
At the end of 1, 5, and 15 minutes of exposure, 0.5 ml of a universal neutralizer was added and mixed by shaking to deactivate the drugs and stop their antimicrobial activity. The neutralizer consisted of tween-80 (Sigma-Aldrich)—3.0 ml, saponin (DIAEM)—3.0 g, histidine—0.1 g, cysteine—0.1 g in 100 ml of phosphate-buffered solution.
The liquid was inoculated on a dense nutrient medium (Müller-Hinton agar) in 0.1 ml of the mixture, cultivation was carried out (24-48) hours at 37° C. Müller-Hinton broth was prepared from dry media (Mueller Hinton broth, Acumedia, Baltimore), cultivation was carried out on agarized Müller-Hinton broth, which included an additional 2% of agar. The media were autoclaved at 121° C. for 15 minutes.
After the time required for the cultivation of microorganisms, the results were counted according to the number of colonies grown on the Petri dish. In the absence of growth, the time for culturing microorganisms was increased by a factor of 2 (for example, when the cultivation time was 24 hours, it was left in the thermostat for up to 2 days). The experiment was carried out three times under the same conditions.
The criterion of efficacy of drugs in suspension is the death of 100% test microorganisms, with a duration of action not more than 30 minutes.

Stylonychia mytilus = experiment: Antiprotozoal activity by death of protozoa; assay type: cell-based; conditions: for IC50: read-out: IC50 (95% confidence interval)
Protocol: Evaluation of the antiprotozoal activity of compound I was determined by the viability of the protozoa genus of hypotrichs Stylonychia mytilus in a nutrient medium in the presence of the studied substances. A mother liquor of compound I (10 mg/ml) was prepared in a mixture of DMSO and 96% ethanol (1:1). A 1% aqueous solution of DMSO and ethyl alcohol served as a negative control, and miramistin, benzalkonium chloride, and chlorhexidine were used as reference preparations. Then, from the mother liquors by repeated dilutions with water, working solutions were prepared corresponding to doses of 5; 10; 20; 25; 50; 75; 100 and 150 μg/ml. 10 μl of culture medium with protozoa and 10 μl of a solution of the test substance were applied to a chamber slide. The experiment was done in five replicates.
Slides were examined under a light microscope, antiprotozoal activity of substances (MIC and IC50) were determined by the death of protozoa. The Hill regression model with 5 parameters was used for the analysis.

[3] = C. albicans RCPF Y-401/NCTC-885-653
[4] = 0.1% solution, exposure 1 min, +BSA
[5] = 0.1% solution, exposure 1 min, −BSA
[6] = 0.1% solution, exposure 5 min, +BSA
[7] = 0.1% solution, exposure 5 min, −BSA
[8] = 0.1% solution, exposure 15 min, +BSA
[9] = 0.1% solution, exposure 15 min, −BSA
[10] = 0.2% solution, exposure 1 min, +BSA
[11] = 0.2% solution, exposure 1 min, −BSA
[12] = 0.2% solution, exposure 5 min, +BSA
[13] = 0.2% solution, exposure 5 min, −BSA
[14] = 0.2% solution, exposure 15 min, +BSA
[15] = 0.2% solution, exposure 15 min, −BSA
[16] = death of protozoa, Hill regression

Row | Compound | The value of the MIC [1, 3] | Inhibition rate (M ± SD) of Escherichia coli CDC F-50 growth [2, 4] [%] | Inhibition rate (M ± SD) of Escherichia coli CDC F-50 growth [2, 5] [%] | Inhibition rate (M ± SD) of Escherichia coli CDC F-50 growth [2, 6] [%] | Inhibition rate (M ± SD) of Escherichia coli CDC F-50 growth [2, 7] [%] | Inhibition rate (M ± SD) of Escherichia coli CDC F-50 growth [2, 8] [%] | Inhibition rate (M ± SD) of Escherichia coli CDC F-50 growth [2, 9] [%] | Inhibition rate (M ± SD) of Escherichia coli CDC F-50 growth [2, 10] [%] | Inhibition rate (M ± SD) of Escherichia coli CDC F-50 growth [2, 11] [%] | Inhibition rate (M ± SD) of Escherichia coli CDC F-50 growth [2, 12] [%] | Inhibition rate (M ± SD) of Escherichia coli CDC F-50 growth [2, 13] [%] | Inhibition rate (M ± SD) of Escherichia coli CDC F-50 growth [2, 14] [%] | Inhibition rate (M ± SD) of Escherichia coli CDC F-50 growth [2, 15] [%] | further results
1 | alkyldimethyl(phenylmethyl) ammonium chloride [Benzalconium chloride] | 7.8 µg/mL | 99.99 ± 0.005 | 99.99 | 99.99 ± 0.005 | 99.99 ± 0.005 | 100 | 100 | 99.99 ± 0.005 | 99.99 ± 0.005 | 100 | 99.99 ± 0.005 | 100 | 100 | MIC (Stylonychia mytilus; death of protozoa): 30 µg/mL; IC50 (95% confidence interval) (Stylonychia mytilus; [16]): 67 (66-69) μg/ml
2 | CCCCCCCCCCCC[N+](C)(C)Cc1cnc(C[N+](C)(C)CCCCCCCCCCCC)c2c1COC(CC)O2 (stereo not shown) [Compound I, 5,8-(Bis(methylene (N, N-dimethyl-N-dodecylammonium))-2-ethyl-4H-[1,3]dioxino [4,5-c]pyridiniumdichloride] |  | 99.99 ± 0.005 | 99.99 | 99.99 ± 0.005 | 99.99 ± 0.005 | 100 | 100 | 99.99 ± 0.005 | 99.99 | 99.99 | 99.99 | 100 | 100 | MIC ([1]; NCTC885, C. albicans RCPF Y-401/NCTC-885-653, read-out: The value of the MIC): 62.5 µg/mL; IC50 (Stylonychia mytilus; [16]): 59 µg/mL; MIC (Stylonychia mytilus; death of protozoa, read-out: MIC): 25 µg/mL
3 | CCCCCCCCCCCCCC(=O)NCCC[N+](C)(C)Cc1ccccc1.O.[Cl-] [Miramistin, benzyldimethyl [3-(myristoylamino)propyl]-ammonium chloride monohydrate] | inactive | 99.98 ± 0.005 | 99.99 | 99.99 | 99.99 ± 0.005 | 99.99 ± 0.005 | 100 | 99.99 | 99.99 | 99.99 | 99.99 ± 0.005 | 100 | 100 | MIC ([1]; NCTC885, read-out: The value of the MIC): > 500 µg/mL; MIC (Stylonychia mytilus): 50 µg/mL; IC50 (Stylonychia mytilus): 92 µg/mL
